According to patent US20200283807A1, “METHOD AND CELL LINE FOR PRODUCTION OF PHYTOCANNABINOIDS AND PHYTOC[…] IN YEAST” (Hyasynth Biologicals Inc., priority 2017, published 2020):

Tests used:
S. cerevisiae [1] = experiment: Effect of hexanoic acid on growth of S. cerevisiae strain HB13 (A600 of culture); format: cell-based, Saccharomyces cerevisiae; conditions: for growth (A600): HB13-HA, 0.5 mM hexanoic acid
Protocol: (§1) Yeast cultures were grown in overnight cultures with selective media to provide starter cultures. The resulting starter cultures were then used to inoculate triplicate 50 ml cultures to an optical density at having an absorption at 600 nm (“A600”) of 0.1.
HB13 was cultured in YNB+2% glucose+1.6 g/L 4DO*+0.5 mM hexanoic acid. Hexanoic acid was added at 36 hours of culture. The hexanoic acid was added to separate culture samples at concentrations of 0, 0.5, 1.0 and 3.0 mM. Hexanoic acid is toxic to S. cerevisiae. […] The magnitude of the decrease in S. cerevisiae growth corresponds to the concentration of hexanoic acid in the growth media. The A600 value of culture suspensions quantifies the growth rate, which is shown at hexanoic acid concentrations of 0, 0.5, 1.0 and 3.0 mM in FIG. 12.
(§2) In the presence of 0.5 mM hexanoic acid, HB13 and HB37 were grown for 96 hours with samples taken at the 24h, 36h, 48h, 60, 72h, 84h and 96h points. In the absence of hexanoic acid, HB13 and HB84 were grown and a single time point was taken at 72 hours. HB13 was used as a control in both experiments. The growth media are described above in relation to Tables 8 and 9.

S. cerevisiae [2] = experiment: Growth of S. cerevisiae strain HB37 in the presence of hexanoic acid (A600 of culture); format: cell-based, Saccharomyces cerevisiae; conditions: HB37-HA, 0.5 mM hexanoic acid
Protocol: as §1, §2
FIGS. 13 to 15 each show the A600 values of the HB37 culture listed in Table 10 (dashed lines with triangle data points).

With `CCCCCC(=O)O` [hexanoic acid] the “growth (A600)” value (S. cerevisiae [1]; 24 h) was 5.33, the “growth (A600)” value (S. cerevisiae [1]; 36 h) was 5.80 and the “growth (A600)” value (S. cerevisiae [1]; 48 h) was 4.67. The “growth (A600)” value (S. cerevisiae [1]; 60 h) was 6.07, the “growth (A600)” value (S. cerevisiae [1]; 72 h) was 8.96 and the “growth (A600)” value (S. cerevisiae [1]; 84 h) was 7.23. The “growth (A600)” value (S. cerevisiae [1]; 96 h) was 8.28, the “effect of hexanoic acid supplementation on growth of S. cerevisiae (A600)” value (S. cerevisiae [1]; HB13, hexanoic acid added at 36 hours at 0, 0.5, 1.0 and 3.0 mM, FIG. 12) was “Decreased growth” and the “growth (A600)” value (S. cerevisiae [2]; 24 h) was 3.33. The “growth (A600)” value (S. cerevisiae [2]; 36 h) was 3.43, the “growth (A600)” value (S. cerevisiae [2]; 48 h) was 3.33 and the “growth (A600)” value (S. cerevisiae [2]; 60 h) was 3.53. The “growth (A600)” value (S. cerevisiae [2]; 72 h) was 4.48, the “growth (A600)” value (S. cerevisiae [2]; 84 h) was 4.13 and the “growth (A600)” value (S. cerevisiae [2]; 96 h) was 4.33.
